We go through four molecules from patent publication US12540139B2, “Imidazopiperazine inhibitors of transcription activating proteins” (Board of Regents, The University of Texas System, priority 2020, dated 2026).

The structures appear in SMILES notation.

For data set [1], the target named is T1, GST-CBP (1081-1197) bromodomain (Homo sapiens, UniProt Q92793).
T1 construct: The GST tagged bromodomains of CBP (1081-1197) and BRD4 (49-170) were obtained from BPS Bioscience; purchased BPS Bioscience
T1 sequence (Q92793 1081-1197): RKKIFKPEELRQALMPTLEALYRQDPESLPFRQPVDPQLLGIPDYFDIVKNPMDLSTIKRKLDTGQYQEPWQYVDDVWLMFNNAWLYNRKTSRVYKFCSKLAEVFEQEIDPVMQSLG
Briefly: CBP AlphaScreen assay. The settings on record: biotin-H4 (1-21) Ac-K5/8/12/16 peptide. In kind it is binding. How it is done:
(§1) Specific binding of the CBP or BRD4 bromodomain to the acetylated peptide derived from the H4 histone substrate (tetra acetylated H4 (1-21) Ac-K5/8/12/16) was measured in absence or presence of inhibitors. The GST tagged bromodomains of CBP (1081-1197) and BRD4 (49-170) were obtained from BPS Bioscience and binding to the biotinylated H4 (1-21) Ac-K5/8/12/16 (AnaSpec. 64989) was assessed via AlphaScreen technology (Perkin Elmer).
5 nM GST-CBP (1081-1197) and 20 nM biotin-H4 (1-21) Ac-K5/8/12/16 (AnaSpec. 64989) were incubated with varying concentrations of CBP inhibitors in 15 μL of buffer containing 50 mM HEPES 7.5, […], 1 mM TCEP, and 0.003% Tween-20. After 30 minutes incubation at room temperature, 15 μL of detection buffer (BPS Bio. 33006) containing 7 μg/mL of Glutathione AlphaLisa acceptor beads (Perkin Elmer AL109) and 14 μg/mL of Streptavidin donor beads (Perkin Elmer 676002) was then added to the previous mixture. The reaction was incubated for an additional 2 hours at room temperature, and the AlphaScreen signal was quantified using the Envision Multilabel plate reader. As negative control, GST-CBP (1081-1197) was incubated with the non-acetylated biotin-H4 (1-21) peptide (AnaSpec. 62555) and in presence of 0.25% of final DMSO concentration.
(§2) The binding of 2.5 nM of BRD4 (49-170) to 10 nM biotin-H4 (1-21) Ac-K5/8/12/16 (AnaSpec. 64989) was assessed following the same procedure described for the CBP assay. The standard dose response curves were fitted by Genedata Screener software using the variable-slope model: Signal=Signalnegative control+(SignalDMSO control−Signalnegative control)/(1+(IC50/Dose)^Hill slope).
(§3) Only Signal and Dose in the equation were treated as known values.
On the technique in general: Alpha assays give light when donor and acceptor beads are brought close together.

Data set [2] deals with T2, BRD4 (49-170) bromodomain (Homo sapiens, UniProt O60885).
T2 construct: The GST tagged bromodomains of CBP (1081-1197) and BRD4 (49-170) were obtained from BPS Bioscience; purchased BPS Bioscience
In words: BRD4 AlphaScreen assay. Particulars: biotin-H4 (1-21) Ac-K5/8/12/16 peptide. In kind it is binding. How it is done:
as §1, §2, §3

A further data set concerns DOHH2 cells. In words: DOHH2 proliferation assay (CellTiter-Glo, day 7). It is filed as cell-based. The settings on record: Homo sapiens, DOHH-2, 168 h; viability by CellTiter-Glo on day 7. How it is done:
On day 1, 1000 DOHH2 cells were seeded to a 384-well TC plate (PerkinElmer #6007680) in 40 μL RPMI 1640 media, followed by the addition of CBP inhibitors except for column 13 where 3.3 μM staurosporine was added as negative control. DMSO was 0.1% in all the wells. The cells were lysed in and counted for viability by 40 μL CellTiter-Glo (Promega #G9243) on day 7. The luminescent signal was quantified by Envision Multilabel plate reader and the standard dose response curves were fitted by Genedata Screener software using the variable-slope model: Signal=Signalnegative control+(SignalDMSO control−Signalnegative control)/(1+(IC50/Dose)^Hill slope).
as §3
A general note: In ATP-based viability assays light output follows the ATP content of the culture.

A short description of data set [3]: Metabolic stability in mouse liver microsomes. Particulars: pH 7.4; CD-1 mouse liver microsomes 0.5 mg/mL, NADPH, 45 minutes, 37° C.; read-out: Half-life in liver microsomes (t1/2), Mouse. In kind it is in vitro ADME. The procedure:
(§4) Microsomal stability. Microsomal stability assays were conducted on a Beckmann Biomek FXp laboratory automation system. The liver microsomal incubation mixture consisted of liver microsomes (0.5 mg microsomal protein/mL), the Compound (1 μM), MgCl2 (3 mM), and EDTA (1 mM) in potassium phosphate buffer (100 mM, pH 7.4). Midazolam and Ketanserin were used as the assay control substrates. The reaction was initiated with the addition of an NADPH regeneration solution (1.3 mM NADPH) and maintained at 37° C. with shaking. At five time points ranging from 0 to 45 min, aliquots (50 μL) were removed and quenched with acetonitrile (100 μL) containing an internal standard (imipramine). After vortex and centrifugation, samples were analyzed by LC-MS/MS. Calculation of the in vitro half-lives and clearance followed literature guidelines.
(In general: Liver microsomes are a subcellular fraction often used to study metabolism.)

Data set [4] is described as follows: Metabolic stability in rat liver microsomes. It is filed as in vitro ADME. The settings on record: pH 7.4; Sprague Dawley rat liver microsomes 0.5 mg/mL, NADPH, 45 minutes, 37° C.; read-out: Half-life in liver microsomes (t1/2), Rat. The procedure: as §4
Data set [5] is described as follows: Metabolic stability in human liver microsomes. In kind it is in vitro ADME. The settings on record: pH 7.4; human liver microsomes 0.5 mg/mL, NADPH, 45 minutes, 37° C.; read-out: Half-life in liver microsomes (t1/2), Human. The procedure: as §4
Data set [6] can be described thus: Metabolic stability in monkey liver microsomes. In kind it is in vitro ADME. The settings on record: pH 7.4, read-out: Liver microsomal clearance (t1/2), Monkey. How it is done: as §4
A short description of data set [7]: Metabolic stability in dog liver microsomes. It is filed as in vitro ADME. The settings on record: pH 7.4, read-out: Liver microsomal clearance (t1/2), Dog. How it is done:
as §4

The nature of data set [8]: In vivo pharmacokinetics after a single dose, mouse. The settings on record: female CD-1 mice, single dose 0.2 or 0.3 mg/kg IV; for Vd: read-out: Vss. The procedure: (§5) IV (intravenous) doses were formulated in 20% DMSO+60% PEG400+20% water. PO (per os) doses were formulated in 0.5% methylcellulose in water.
Mouse: Female mice (CD1 strain, purchased from Shanghai JH Laboratory Animal Co. LTD) weighing 20-30 g were used for studies. Food and water were available to all animals ad libitum. The test article was dosed via tail vein (IV doses) or oral gavage (PO doses), respectively. Blood samples were collected from all animals at predose and at 0.083, 0.25, 0.5, 1, 2, 4, 8, and 24 h postdose into tubes containing the anticoagulant K2EDTA (3 animals per time point with 3 time points collected per animal). Plasma was separated from the blood by centrifugation at 4° C. and stored at −70° C. until analysis. Test article concentrations in plasma were quantified using a liquid chromatography with tandem mass spectrometry (LC-MS/MS) method.

The nature of data set [9]: In vivo pharmacokinetics after a single dose, rat. Particulars: male, plasma, Sprague-Dawley rat. The procedure:
as §5
Rat: Male rats (SD strain, purchased from Shanghai JH Laboratory Animal Co. LTD) weighing 200-300 g were used for studies. Animals were fasted overnight and fed 4 h postdose. Water was available ad libitum for all animals. Test article was dosed via dorsal foot vein (IV doses) or oral gavage (PO doses). Blood samples were collected via tail vein from all animals at predose and at 0.083, 0.25, 0.5, 1, 2, 4, 8, and 24 h postdose into tubes containing the anticoagulant K2EDTA. Plasma was separated from the blood by centrifugation at 4° C. and stored at −70° C. until analysis. Test article concentrations in plasma were quantified using a liquid chromatography with tandem mass spectrometry (LC-MS/MS) method.

The nature of data set [10]: In vivo pharmacokinetics after a single dose, monkey. Particulars: male, plasma, Cynomolgus monkey. The procedure:
as §5
(§6) Monkey: Male Cynomolgus monkeys (purchased from Hainan Jingang Biotech. Co., Ltd) weighing 3-5 kg were used for studies. Animals were fasted overnight and fed 4 h postdose. Test article was administered to monkeys via the cephalic vein (IV doses) or nasal gavage (PO doses). Blood samples were collected via the saphenous vein or cephalic vein from all animals at predose and 0.083, 0.25, 0.5, 1, 2, 4, 8, and 24 h postdose into tubes containing the anticoagulant K2EDTA. Plasma was separated from the blood by centrifugation at 4° C. and stored at −70° C. until analysis. Test article concentrations in plasma were quantified using a liquid chromatography with tandem mass spectrometry (LC-MS/MS) method.

Data set [11] can be described thus: In vivo pharmacokinetics after a single dose, dog. Particulars: male, plasma, Beagle dog. The procedure: as §5
as §6, with “Dog:” for “Monkey:”, “Beagle dogs” for “Cynomolgus monkeys”, “Beijing Marshall Biotechnology” for “Hainan Jingang Biotech.”, “7-10” for “3-5”, “dogs” for “monkeys”, “oral” for “nasal”

Where [12] appears, read: mouse, plasma, read-out: Clearance (converted).

The IC50 is the midpoint of a concentration-inhibition curve. What is called clearance is the volume of plasma or blood freed of the substance per unit of time. What is called AUC(0-t) is the area under the concentration-time curve up to a stated or last time point. For orientation: Cmax means the highest concentration seen after dosing. What is called bioavailability is the share of a dose that reaches the circulation, judged against a reference dose that is usually intravenous. Take `CNC(=O)N1CCn2c(C3CCOCC3)nc(-c3cccc4nc(-c5cnc(C)s5)c(C(F)F)cc34)c2C1` [Compound 1, 1-(3-(difluoromethyl)-2-(2-methylthiazol-5-yl)quinolin-5-yl)-N-methyl-3-(tetrahydro-2H-pyran-4-yl)-5,6-dihydroimidazo[1,5-a]pyrazine-7(8H)-carboxamide]: the IC50 is 3 nM in [1], 4790 nM in [2] and 29 nM in the data set with DOHH2 cells. The half-life at 1 μM in [3] was found to be 69.8 h; in data set [4] it was 3.22 h; in [5] it was 3.97 h; in data set [6] it was 0.383 h; in data set [7], 1.05 h. For the same molecule, the clearance entry in [8] is “dramatic decrease”; in [8] (setting [12]), 3.28 mL/min/kg; in data set [9] (1 mg/kg IV) it was 8.92 mL/min/kg; in data set [10] (1 mg/kg IV) it was 12.3 mL/min/kg; in data set [11] (1 mg/kg IV) it was 6.72 mL/min/kg. The t1/2 result in data set [8] is “increase”. Further, the half-life is 4.47 h in data set [8] (mouse, plasma); 2.99 h in [9] (1 mg/kg IV); 1.65 h in data set [10] (1 mg/kg IV); 3.42 h in data set [11] (1 mg/kg IV). The Vd in data set [8] (mouse, plasma) came to 0.342 L/kg; in [9] (1 mg/kg IV, read-out: Vss), 0.908 L/kg; in data set [10] (1 mg/kg IV, read-out: Vss) it was 1.06 L/kg; in data set [11] (1 mg/kg IV, read-out: Vss), 1.57 L/kg. The AUC(0-t) came to 2.63 µM·h in data set [9] (3 mg/kg PO), 2.49 µM·h in [10] (3 mg/kg PO) and 10.8 µM·h in data set [11] (3 mg/kg PO). For the same molecule, the results for the Cmax in [9] (3 mg/kg PO), in data set [10] (3 mg/kg PO) and in data set [11] (3 mg/kg PO) were 1350 nM, 773 nM and 1870 nM, respectively. In addition, the results for the bioavailability in data set [9] (3 mg/kg PO), in [10] (3 mg/kg PO) and in data set [11] (3 mg/kg PO) were 25.2%, 28.2% and 78.9%, respectively.

In the case of `CC(=O)N1CCn2c(C3CCOCC3)nc(-c3cccc4nc(-c5cnc(C)s5)c(C(F)F)cc34)c2C1` [Compound 2], the IC50 amounted to 2 nM in data set [1], 1930 nM in [2] and 215 nM in the data set with DOHH2 cells.

Consider `CC(=O)N1CCn2c(C3CCOCC3)nc(-c3cccc4nc(-c5ccc(C)nc5)c(C(F)F)cc34)c2C1` [Compound 3, 1-(1-(3-(Difluoromethyl)-2-(6-methylpyridin-3-yl)quinolin-5-yl)-3-(tetrahydro-2H-pyran-4-yl)-5,6-dihydroimidazo[1,5-a]pyrazin-7(8H)-yl)ethan-1-one], for which the half-maximal inhibitory concentration (IC50) was 17 nM in [1], 7430 nM in data set [2] and 198 nM with DOHH2 cells.

Take `CNC(=O)N1CCn2c(C3CCOCC3)nc(-c3cccc4cc(-c5cnc(C)s5)ncc34)c2C1` [Compound 4, reference compound]: the IC50 in the data set with DOHH2 cells amounted to 134 nM. For the same molecule, the figures for the half-life at 1 μM in data set [3], in data set [4] and in data set [5] were 86.7 h, 8.45 h and 4.35 h, respectively. Besides, the half-life in data set [8] (mouse, plasma) is 0.318 h. In data set [8] (setting [12]), the clearance was 33.5 mL/min/kg. For the same molecule, the Vd in data set [8] (mouse, plasma) is 0.822 L/kg.
